Starred links: 1 amine or outer side, 2 acyl side, 3 side chain; linkers in the order of their positions; H or OH if unused. Non-standard residues stand in square brackets, D forms with d. Residues, ends and D or L forms follow the SMILES beside them. Groups on a side chain read outwards from the residue. *: point of attachment. C18 diacid = O=C(O)CCCCCCCCCCCCCCCCC(=O)*; γGlu = O=C(O)[C@H](CCC(=O)[*:2])N[*:1]; AEEA = NCCOCCOCC(=O)O; Aib = CC(C)(N)C(=O)O

As usually defined, the EC50 is the midpoint of the concentration-response curve.

One data set deals with T1, human GLP-1 receptor (Homo sapiens, UniProt P43220).
T1 construct: expressed in transfected cells; host or cells: membranes of BHK cells (parent BHKTS13), clone FCW467-12A
T1 sequence (P43220 24-463): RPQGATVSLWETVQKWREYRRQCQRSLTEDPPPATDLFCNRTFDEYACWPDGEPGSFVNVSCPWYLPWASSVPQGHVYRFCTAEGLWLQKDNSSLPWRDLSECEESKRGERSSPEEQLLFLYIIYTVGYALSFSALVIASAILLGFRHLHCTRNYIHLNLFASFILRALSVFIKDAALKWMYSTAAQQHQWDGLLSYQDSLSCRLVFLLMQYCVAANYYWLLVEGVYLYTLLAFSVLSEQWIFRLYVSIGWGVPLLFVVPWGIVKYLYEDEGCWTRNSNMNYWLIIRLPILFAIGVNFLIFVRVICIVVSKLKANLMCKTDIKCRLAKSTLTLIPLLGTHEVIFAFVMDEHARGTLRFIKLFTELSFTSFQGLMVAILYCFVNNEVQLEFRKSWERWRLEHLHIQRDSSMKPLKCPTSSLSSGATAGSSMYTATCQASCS
In words: Assay (I)(a) GLP-1 receptor activation, CRE luciferase reporter gene assay in BHK cells. The format is cell-based. To be noted: without presence of serum albumin; read-out: GLP-1R EC50 (pM) [Assay (I)(a)]. Summed up: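 Stable BHK clone expressing human GLP-1 receptor with CRE-driven firefly luciferase, 5×10EE3 cells/well in medium with 2% ovalbumin and 0.2% Pluronic F-68. Compounds at 1×10EE-13 to 1×10EE-6 M final, 3 h at 37° C.; luminescence read, EC50 (pM) from four-parameter fit.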
For orientation: In a reporter assay the amount or activity of a reporter protein is the signal.

The target of a further data set is T2, human glucagon receptor (Homo sapiens, UniProt P47871).
T2 construct: expressed in transfected cells; host or cells: membranes of BHK cells, clone BHK hGCGR A3*25
T2 sequence (P47871 26-477): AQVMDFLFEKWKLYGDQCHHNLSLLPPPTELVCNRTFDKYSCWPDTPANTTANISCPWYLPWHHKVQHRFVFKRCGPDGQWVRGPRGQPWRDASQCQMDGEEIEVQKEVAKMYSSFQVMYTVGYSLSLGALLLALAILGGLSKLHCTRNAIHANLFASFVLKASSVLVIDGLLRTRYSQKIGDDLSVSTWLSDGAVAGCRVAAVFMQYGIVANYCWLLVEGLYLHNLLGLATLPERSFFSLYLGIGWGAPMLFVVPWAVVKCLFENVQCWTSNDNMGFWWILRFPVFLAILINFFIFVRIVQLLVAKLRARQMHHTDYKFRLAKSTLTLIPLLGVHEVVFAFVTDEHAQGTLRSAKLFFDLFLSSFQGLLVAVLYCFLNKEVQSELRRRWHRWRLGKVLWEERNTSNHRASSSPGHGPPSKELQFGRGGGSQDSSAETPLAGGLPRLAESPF
In words: Assay (I)(b) glucagon receptor activation, CRE luciferase reporter gene assay in BHK cells. The format is cell-based. The conditions noted are these: without presence of serum albumin; read-out: GlucagonR EC50 (pM), [Assay (I)(b)]. How it is done: The purpose of this example was to test the activity or potency, of the glucagon derivatives of the invention, in vitro. The in vitro potency is the measure of human GLP-1 receptor (GLP-1R) or glucagon receptor (glucagonR) activation, respectively, in a whole cell assay. In vitro potency was determined by measuring the response of human GLP-1 or glucagon receptor, respectively, in a reporter gene assay. The assay was performed in a stably transfected BHK cell line that expresses either the human GLP-1 receptor or the human glucagon receptor and contains the DNA for the cAMP response element (CRE) coupled to a promoter and the gene for firefly luciferase (CRE luciferase). […] When assay incubation was completed, the luciferase substrate (luciferin) was added and the enzyme converted luciferin to oxyluciferin and produces bioluminescence. The luminescence was measured as the readout for the assay. The cells used in this assay (clone pLJ6′-4-25) were BHK cells with BHK570 as a parent cell line expressing the CRE luciferase gene (clone BHK/KZ10-20-48) and were established by further transfection with the human glucagon receptor (clone pLJ6′ in pHZ-1 vector). The cells were cultured at 5% CO2 in DMEM medium with 10% FBS, 1×GlutaMAX, 1 mg/ml G418, 240 nM MTX (methotrexate) and 1% pen/strep (penicillin/streptomycin). They were aliquoted and stored in liquid nitrogen. Before each assay, an aliquot was taken up and washed three times in PBS before being suspended at the desired concentration in assay medium. For 96-well plates the suspension was made to give a final concentration of 5×10EE3 cells/well. The following chemicals were used in the assay: Pluronic F-68 (10%) (Gibco 2404), ovalbumin (Sigma A5503), DMEM w/o phenol red (Gibco 11880-028), 1 M Hepes (Gibco 15630), Glutamax 100× (Gibco 35050) and steadylite plus (PerkinElmer 6016757). Assay Medium consisted of DMEM w/o phenol red, 10 mM Hepes, 1× GlutaMAX, 2% Ovalbumin and 0.2% Pluronic F-68. Cell stocks were thawed in a 37° C. water bath. Cells were washed three times in PBS. The cells were counted and adjusted to 5×10EE3 cells/50 μl (1×10EE5 cells/ml) in Assay Medium. A 50 μl aliquot of cells was transferred to each well in the assay plate. Stocks of the test compounds and reference compounds were diluted to a concentration of […] in Assay Medium. Compounds were diluted 10-fold to give the following concentrations: 2×10EE-6 M, 2×10EE-7 M, 2×10EE-8 M; 2×10EE-9 M, 2×10EE-10 M, 2×10EE-11 M, 2×10EE-12 M and 2×10EE-13 M. For each compound a blank assay medium control was also included. A 50 μl aliquot of compound or blank was transferred from the dilution plate to the assay plate. Compounds were tested at the following final concentrations: 1×10EE-6 M, 1×10EE-7 M, 1×10EE-8 M; 1×10EE-9 M, 1×10EE-10 M, 1×10EE-11 M and 1×10EE-12 M and 1×10EE-13 M. The assay plate was incubated for 3 h in a 5% CO2 incubator at 37° C. The assay plate was removed from the incubator and allowed to stand at room temperature for 15 min. A 100 μl aliquot of steadylite plus reagent was added to each well of the assay plate (reagent is light sensitive). Each assay plate was covered with aluminum foil to protect it from light and shaken for 30 min at room temperature. Each assay plate was read in a Perkin Elmer TopCount NXT instrument. The data from the TopCount instrument was transferred to GraphPad Prism software. The software performed a non-linear regression (log(agonist) vs response-Variable slope (four parameter)). EC50 values were calculated by the software and reported in pM.

Data set [1] in a line: Assay (III) ThT fibrillation assay for physical stability. The format is physicochemical. To be noted: 250 μM in 10 mM HEPES buffer, 37° C., shaking 960 rpm. An excerpt: The purpose of this assay is to assess the physical stability of the glucagon derivatives of the invention in aqueous solutions. Low physical stability of a peptide may lead to amyloid fibril formation, which is observed as well-ordered, thread-like macromolecular structures in the sample, which eventually may lead to gel formation. This has traditionally been measured by visual inspection of the sample. However, that kind of measurement is very subjective and depending on the observer. Therefore, the application of a small molecule indicator probe is much more advantageous. Thioflavin T (ThT) is such a probe and has a distinct fluorescence signature when binding to fibrils [Naiki et al. (1989) Anal. Biochem. 177, 244-249; LeVine (1999) Methods. Enzymol. 309, 274-284]. […] The constant t0 is the time needed to reach 50% of maximum fluorescence. The two important parameters describing fibril formation are the lag-time calculated by t0−2τ and the apparent rate constant kapp 1/τ. Samples were prepared freshly before each assay. Each sample composition is described in the legends. The pH of the sample was adjusted to the desired value using appropriate amounts of concentrated NaOH and HCl. Thioflavin T was added to the samples from a stock solution in H2O to a final concentration of 1 μM. Sample aliquots of 200 μl (250 μM of the glucagon derivative in 10 mM HEPES buffer, pH 7.5) were placed in a 96 well microtiter plate (Packard OptiPlate™-96, white polystyrene). Usually, four or eight replica of each sample (corresponding to one test condition) were placed in one column of wells. The plate was sealed with Scotch Pad (Qiagen). Incubation at given temperature, shaking and measurement of the ThT fluorescence emission were done in a Fluoroskan Ascent FL fluorescence platereader (Thermo Labsystems). The temperature was adjusted to 37° C. The plate was incubated with orbital shaking adjusted to 960 rpm with an amplitude of 1 mm. Fluorescence measurement was done using excitation through a 444 nm filter and measurement of emission through a 485 nm filter. Each run was initiated by incubating the plate at the assay temperature for 10 min. The plate was measured every 20 minutes for a desired period of time. Between each measurement, the plate was shaken and heated as described. After completion of the ThT assay the four or eight replica of each sample was pooled and centrifuged at 20000 rpm for 30 minutes at 18° C. The supernatant was filtered through a 0.22 μm filter and an aliquot was transferred to a HPLC vial. The concentration of peptide in the initial sample and in the filtered supernatant was determined by reverse phase HPLC using an appropriate standard as reference. The percentage fraction the concentration of the filtered sample constituted of the initial sample concentration was reported as the recovery. The measurement points were saved in Microsoft Excel format for further processing and curve drawing and fitting was performed using GraphPad Prism. The background emission from ThT in the absence of fibrils was negligible. The data points are typically a mean of four or eight samples and shown with standard deviation error bars. Only data obtained in the same experiment (i.e. samples on the same plate) are presented in the same graph ensuring a relative measure of fibrillation between experiments. The data set may be fitted to Eq. (1).

Take `CC[C@H](C)[C@H](NC(=O)[C@H](CC(C)C)NC(=O)[C@H](Cc1c[nH]c2ccccc12)NC(=O)[C@H](CCC(N)=O)NC(=O)[C@@H](NC(=O)[C@H](Cc1ccccc1)NC(=O)[C@H](CC(=O)O)NC(=O)[C@H](CCCNC(=N)N)NC(=O)[C@H](C)NC(=O)[C@H](CCCNC(=N)N)NC(=O)[C@H](CCCNC(=N)N)NC(=O)[C@H](C)NC(=O)[C@H](CC(=O)O)NC(=O)[C@H](CC(C)C)NC(=O)[C@H](Cc1ccc(O)cc1)NC(=O)[C@H](CCCCN)NC(=O)[C@H](CO)NC(=O)[C@H](CC(C)C)NC(=O)[C@H](CC(=O)O)NC(=O)[C@H](CO)NC(=O)[C@@H](NC(=O)[C@H](Cc1ccccc1)NC(=O)[C@@H](NC(=O)CNC(=O)[C@H](CCC(N)=O)NC(=O)C(C)(C)NC(=O)[C@@H](N)Cc1c[nH]cn1)[C@@H](C)O)[C@@H](C)O)C(C)C)C(=O)N[C@@H](CCCCNC(=O)CC[C@H](NC(=O)CC[C@H](NC(=O)CC[C@H](NC(=O)CCCCCCCCCCCCCCCCC(=O)O)C(=O)O)C(=O)O)C(=O)O)C(=O)N[C@H](C(N)=O)[C@@H](C)O` [Chem. 15, N^ε28-[(4S)-4-carboxy-4-[[(4S)-4-carboxy-4-[[(4S)-4-carboxy-4-(17-carboxyheptadecanoylamino)butanoyl]amino]butanoyl]amino]butanoyl]-[Aib2,Leu10,Ala16,Arg20,Ile27,Lys28]-Glucagon amide] (HELM PEPTIDE1{H.[Aib].Q.G.T.F.T.S.D.L.S.K.Y.L.D.A.R.R.A.R.D.F.V.Q.W.L.I.K.T.[am]}|PEPTIDE2{[O=C(O)CCCCCCCCCCCCCCCCC(=O)[*:2]].[gGlu].[gGlu].[gGlu]}$PEPTIDE1,PEPTIDE2,28:R3-4:R2$$$V2.0): the concentration for a half-maximal effect (EC50) is 4 pM at human GLP-1 receptor and 7 pM at human glucagon receptor.
For `CC[C@H](C)[C@H](NC(=O)[C@H](CC(C)C)NC(=O)[C@H](Cc1c[nH]c2ccccc12)NC(=O)[C@H](C)NC(=O)[C@@H](NC(=O)[C@H](Cc1ccccc1)NC(=O)[C@H](CC(=O)O)NC(=O)[C@H](CCCNC(=N)N)NC(=O)[C@H](C)NC(=O)[C@H](CCCNC(=N)N)NC(=O)[C@H](CCCNC(=N)N)NC(=O)[C@H](CC(C)C)NC(=O)[C@H](CC(=O)O)NC(=O)[C@H](CC(C)C)NC(=O)[C@H](Cc1ccc(O)cc1)NC(=O)[C@H](CCCCN)NC(=O)[C@H](CO)NC(=O)[C@H](Cc1ccc(O)cc1)NC(=O)[C@H](CC(=O)O)NC(=O)[C@H](CO)NC(=O)[C@@H](NC(=O)[C@H](Cc1ccccc1)NC(=O)[C@@H](NC(=O)CNC(=O)[C@H](CCC(N)=O)NC(=O)C(C)(C)NC(=O)[C@@H](N)Cc1c[nH]cn1)[C@@H](C)O)[C@@H](C)O)C(C)C)C(=O)N[C@@H](CCCCNC(=O)CC[C@H](NC(=O)CC[C@H](NC(=O)COCCOCCNC(=O)COCCOCCNC(=O)CC[C@H](NC(=O)CCCCCCCCCCCCCCCCC(=O)O)C(=O)O)C(=O)O)C(=O)O)C(=O)N[C@H](C(N)=O)[C@@H](C)O` [Chem. 33, N^ε28-[(4S)-4-carboxy-4-[[(4S)-4-carboxy-4-[[2-[2-[2-[[2-[2-[2-[[(4S)-4-carboxy-4-(17-carboxyheptadecanoylamino)butanoyl]amino]ethoxy]ethoxy]acetyl]amino]ethoxy]ethoxy]acetyl]amino]butanoyl]amino]butanoyl]-[Aib2,Leu16,Arg20,Ala24,Ile27,Lys28]-Glucagon amide] (H-H[Aib]QGTFTSDYSKYLDLRRARDFVAWLIK([γGlu-γGlu-AEEA-AEEA-γGlu-C18 diacid])T-NH2), the EC50 on human GLP-1 receptor stood at 7 pM. Further, in data set [1], the “ThT Assay Lag time (h) [Assay (III), pH 7.5]” value was 45.0 h.

These data come from patent US10570184B2, “GLP-1/glucagon receptor co-agonists for medical use” (Novo Nordisk A/S, priority 2014, dated 2020).
